Measurements as given in patent EP1452605A1, “Method for determining antiviral activity” (Universiteit Utrecht Holding B.V., priority 2003, dated 2004).

What was measured:
[1] = system: HIV-1Ba-L; test: HIV-1 infection of monocyte-derived macrophages (MDM), p24-core antigen ELISA; assay type: cell-based; settings: Human immunodeficiency virus 1, Macrophage, 168 h; MDM infected with HIV-1Ba-L, p24 antigen after 7 days
Protocol: (§1) To correct for the input virus, an extra control consisting of medium containing the same amount of input virus as added to the cells was included in the experiment. The amount of p24 in this control was subsequently subtracted from the p24 values of the samples in order to obtain the exact amount of p24 produced by the cells. p24-core antigen quantification by ELISA After 2 or 7 days incubation, samples of the supernatants were collected, inactivated by addition of Empigen (Calbiochem, La Jolla, CA, USA) and by heat inactivation at 56°C for 30 min. p24-core antigen concentration was determined by an enzyme linked immunoabsorbent assay (ELISA) (AMPAK™, DAKO, Cambridgeshire, UK) as described previously ^18,19. The optical density values were converted into p24 concentration (ng/ml) with the use of a calibration curve made by serial dilutions of recombinant p24 protein (NIBSC, UK) that was submitted to the same treatment as the samples.

[2] = Cellular viability assay (MTT) of PBL; assay type: cell-based; settings: human, 7 days, read-out: TC50
[3] = system: HIV-1Ba-L; test: Combination of HIV-1 inhibitors in HIV-1Ba-L infected PBMC (checker board, CalcuSyn); settings: Human immunodeficiency virus 1, PBMC
Protocol: After 7 days incubation, samples of the supernatants were collected, inactivated by addition of Empigen (Calbiochem, La Jolla, CA, USA) and by heat inactivation at 56°C for 30 min. p24-core antigen concentration was determined by an ELISA (AMPAK™, DAKO, Cambridgeshire, UK) as described previously ^39,40. The optical density values were converted into p24 concentration (ng/ml) with the use of a calibration curve made by serial dilutions of recombinant p24 protein (NIBSC, UK) that was submitted to the same treatment as the samples.
After 7 days of incubation, p24 antigen in culture supernatant was quantified by ELISA and cellular viability was assessed by a cytotoxicity assay. fa was calculated for each drug combination after p24 quantification. Using the CalcuSyn program, dose-effect curves were plotted for each drug combination, i.e., each dose was plotted against the corresponding fa value. […] CI values were calculated using the mutually nonexclusive assumption.

[4] = system: HIV-1AT; test: HIV-1 infection of PBMC, p24-core antigen ELISA; assay type: cell-based; settings: Human immunodeficiency virus 1, 168 h; PBMC infected with HIV-1AT, p24 antigen after 7 days
Protocol: as §1

[5] = system: HIV-1HXB2; test: HIV-1 infection of PBMC, p24-core antigen ELISA; assay type: cell-based; settings: Human immunodeficiency virus 1, 168 h; PBMC infected with HIV-1HXB2, p24 antigen after 7 days
Protocol: as §1

[6] = system: MHV-A59; test: MHV infection of mouse L cells, CPE scoring; assay type: cell-based, Mouse hepatitis virus (MHV); settings: 24h, 143 to 0.009 µM
Protocol: After 24h, the cytopatic effect (CPE) of the virus and the cytotoxicity of the compounds were scored by microscopic observation.

[7] = system: HIV-1Ba-L; test: Entry assay: gag RNA in PBMC by real-time Taqman PCR; assay type: cell-based; settings: gag RNA in PBMC 2h after infection, 10 or 30 µM APHS
Protocol: PBMC infection with HIV-1Ba-L or HIV-1HXB2 for real-time Taqman PCR The ability of HIV-1Ba-L to enter the cells in the presence of APHS was tested using DS as positive control (entry assay). The amount of HIV-1HXB2 reverse transcription products in the presence of APHS was also tested, using AZT as positive control (reverse transcription assay). Before infection, PHA-stimulated PBMC from the PBMC batch were pre-incubated with different concentrations of APHS, DS or AZT for 24 h. […]
Real-time Taqman PCR is based on cleavage of a probe, hybridized to the target sequence by 5'-3' nuclease activity of Taq DNA polymerase during amplification, as described previously ^24. […] Once separated from the quencher, the reporter dye emits its characteristic fluorescence, which can then be measured. The amount of fluorescence measured is proportional to the amount of PCR product.
HIV-1 gag cDNA and HIV-1 (-) strong stop and gag DNA were amplified and quantified by real-time Taqman PCR as described elsewhere ^25. […] To quantify the amount of gag RNA in the samples, a cDNA standard curve was prepared from five-fold dilutions of extracted RNA from an HXB2 viral batch, of which the RNA amount was previously determined.

`CCCCC#CCSc1ccccc1OC(C)=O` [APHS, o-(acetoxyphenyl)hept-2-ynyl sulfide] showed an IC50 [1] of 12 µM, a CC50 at 168 h [2] of 147 µM and an IC50 ([3]; 168 h, read-out: IC50 Alone APHS, APHS alone, PBMC, HIV-1Ba-L, 7 days, one value per experiment with the named partner drug) of 10 to 15 µM. For the same molecule, the IC50 ([3]; read-out: IC50 of APHS alone (mean), mean over the combination experiments) was 13 µM, the IC50 ([3]; read-out: IC50 of APHS in combination with RTI or PI (mean), mean over the combination experiments) was 5 µM and the IC50 [4] was 7 µM. For the same molecule, the IC50 [5] was 11 µM, the “effect on MHV replication (CPE)” value [6] was “no effect” and the “viral entry” value [7] was “no inhibition of viral entry”.
